Results reported in patent US8791132B2, “Compounds and methods for treatment of hypertension” (Medivation Technologies, Inc., priority 2011, dated 2014).

Columns and labels:
SH-SY5Y cells [1] = test: Cell viability (MTS reduction) in 4-Br-A23187-treated SH-SY5Y cells; type: cell-based; conditions: MTS reduction capacity; 4-Br-A23187 2 μM, 24 h; compounds at 10 nM
Method: (§1) After 24 h, cells were depleted from FBS and kept in culture for 24 h before the experiment. Cells were then treated with 4-Br-A23187 (2 μM), hydrogen peroxide (300 μM) or the mitochondrial toxin rotenone (25 μM) in the presence of vehicle or Compound of the Invention for 24 h. Cell death was determined by measurements of LDH release according to the Cytotoxicity Detection KitPlus (Roche, Mannheim, Germany). Cell viability was determined by measuring the capacity of cells to metabolize MTS tetrazolium (MTS) according to the Cytotoxicity Detection KitPlus (Roche, Mannheim, Germany) and MTS reduction is assessed by the CellTiter 96® AQueous One Solution Cell Proliferation assay (Promega Corporation, Madison, Wis., USA). Compounds were screened at 10 nM, using DMSO as vehicle. Assay results for the experiments with hydrogen peroxide are presented as the LDH release (cell death) of untreated cells (control), hydrogen peroxide-treated cells (vehicle), and co-incubation of hydrogen peroxide with Compounds of the Invention treated cells normalized to the vehicle (FIG. 17A). This assay assesses the ability of the test compounds to protect against cell death that is mediated by mitochondrial dysfunction. In the assay, the calcium ionophore 4-Br-A23187 is used to challenge the cells, causing calcium levels to rise in mitochondria, which leads to depolarization and cell death. Test compounds are assessed for their ability to prevent cell death in response to challenge with 4-Br-A23187.

SH-SY5Y cells [2] = test: Cell death (LDH release) in hydrogen peroxide-treated SH-SY5Y cells; type: cell-based; conditions: LDH release normalized to vehicle (=100); hydrogen peroxide 300 μM, 24 h; compounds at 10 nM
Method: as §1, with “SH-SY5Y cells cultured in DMEM/F12 media supplemented with 10% FBS were seeded in 96-well microplates at 150,000 cells/cm^2. After” for “After”

[3] = system: dexmedetomidine induced dogs; test: Dexmedetomidine (DEX) induced beagle dog model of hypertension; type: in vivo
Text: (§2) Four adult beagle dogs of both sex and weighted around 10 kg were chosen for the acute studies after a preliminary qualitative electrocardiogram/ECG, clinical pathology and physical examination. Upon arrival at the laboratory, the dogs were weighed and acclimated for a period of one week. Lab Diet certified canine diet #5007, PMI Nutrition International Inc was made available ad libitum to all dogs except during fasting periods. The dogs were surgically implanted with a pressure transducer equipped telemetry transmitter under sodium pentobarbitone anesthesia. The transmitter assembly was secured internally, the fluid-filled catheter was placed into an appropriate artery.
(§3) In the acute studies, the test compounds 3b and 5b at different doses (dosing sequences provided in Table B7 for compound 3b and Table B8 for compound 5b) was administered by oral gavage, 30 minutes prior to intravenous dexmedetomidine (5 μg/kg) challenge. Dexmedetomidine administration was enabled by prior placement of a peripheral intravenous line. The same four dogs were received all four treatments in the order noted in the table below, with at least a 3-day washout period between treatments.
(§4) For the chronic study mode (see Table B9), the test compound 3b at 3 doses was administered by oral gavage once on day 1 and then twice/day on days 2 to 14, and finally once on day 15. The dexmedetomidine was administered on day-4 to check its effectiveness in inducing blood pressure, and once following the morning dose of compound 3b or vehicle on days 2, 7 and 14. Blood pressure and heart rate data were collected 1 h prior & 4 h post-morning dose on days 1, 2, 7, 14 and 15 to allow the appropriate data comparisons. Blood aliquots were saved at 4 h post-morning dose for exposure determination.
In both acute and chronic studies, dogs were weighed before dosing. Cardiovascular evaluations at each dose of test compound were collected with animals gently restrained in a sling. […] The dogs were monitored continuously for 3-4 hours subsequent to test compound administration and summarized in 5-minute bins. […]

healthy dogs = test: Blood pressure in healthy beagle dogs (telemetry); type: in vivo, dog
Text: as §2, §3
In another acute study with compound 41a, the test agent was administered a dose of 6 mg/kg by oral gavage to 4 healthy dogs; and the blood pressure monitored for a period of 4 hours.
as §4
In both acute and chronic studies, dogs were weighed before dosing. Cardiovascular evaluations at each dose of test compound were collected with animals gently restrained in a sling. Dogs were placed in the sling at least 1 hour prior to dose administration, and after at least 30 minutes of stable baseline data collection. The dogs were monitored continuously for 3-4 hours subsequent to test compound administration and summarized in 5-minute bins. The systolic blood pressure was collected.

[4] = system: conscious New Zealand White rabbits; test: Blood pressure in conscious rabbits; type: in vivo, rabbit
Method: Methods: Four adult New Zealand White rabbits of both sexes were chosen for these studies. […] To unveil peripheral effects of Compound 3b, two sets of acute studies were conducted in rabbits. […] A single intravenous bolus dose at 3 mg/kg was given and a time-course study was conducted in the second set of studies. Systolic, […], mean and […] blood pressures were recorded in both the studies. […] In a separate set of studies, Clonidine (positive control) was tested where all experimental procedures including dose-regimen were identical to that of the studies with […].

[5] = dexmedetomidine (5 μg/kg i.v.) induced dogs, acute studies, oral gavage 30 min before challenge

Cc1ccc2c(c1)c1c(n2CC(O)c2ccncc2)CCN(C)C1 (single isomer, unassigned) [3b]
Relative cell viability protection (SH-SY5Y cells [1]): 0.3673 | LDH release (cell death), relative to vehicle (SH-SY5Y cells [2]): 86.70 | systolic blood pressure [3, 5]: dose-dependently reduced systolic blood pressure | systolic blood pressure ([3]; dexmedetomidine induced dogs, chronic study, oral b.i.d., day 2, 7 and 14): dose dependently reduced systolic blood pressure | systolic blood pressure (healthy dogs; acute studies, oral gavage): dose-dependently reduced systolic blood pressure | systolic blood pressure (healthy dogs; chronic study, oral, day 1 and 15): dose dependently reduced systolic blood pressure | dose that produced 80% of the maximum drop in blood pressure ([4]; i.v. cumulative dose-response study): 3 mg/kg | heart rate ([4]; i.v. cumulative dose-response study (FIG. 26, fourth panel)): tachycardia | maximum arterial blood pressure drop ([4]; i.v. cumulative dose-response study, Compound 3b maximum at 10 mg/kg): −11.6 mmHg | duration of arterial blood pressure effect ([4]; single i.v. bolus dose at 3 mg/kg, 3 hours data collection): stable from 90 to 180 minutes | drop in arterial blood pressure ([4]; single i.v. bolus dose at 3 mg/kg, time-course study (FIG. 27)): ~−6 mmHg

CN1CCc2c(c3cc(Cl)ccc3n2CC(O)c2ccncc2)C1 (single isomer, unassigned) [4a]
LDH release (cell death), relative to vehicle (SH-SY5Y cells [2]): 81.64

Cc1ccc2c(c1)c1c(n2CC(C)(O)c2cccnc2)CCN(C)C1 (single isomer, unassigned) [5b, 1-(1,2,3,4-tetrahydro-2,8-dimethylpyrido[4,3-b]indol-5-yl)-2-(pyridin-3-yl)propan-2-ol]
Relative cell viability protection (SH-SY5Y cells [1]): 0.3748 | LDH release (cell death), relative to vehicle (SH-SY5Y cells [2]): 73.73 | systolic blood pressure [3, 5]: dose-dependently reduced systolic blood pressure | systolic blood pressure (healthy dogs; acute studies, oral gavage): dose-dependently reduced systolic blood pressure

Cc1ccc2c(c1)c1c(n2CC(O)c2ccncc2)CCNC1 (single isomer, unassigned) [39a, 2-(8-methyl-1,2,3,4-tetrahydro-pyrido[4,3-b]indol-5-yl)-1-pyridin-4-yl-ethanol]
LDH release (cell death), relative to vehicle (SH-SY5Y cells [2]): 82.94

CN1CCc2c(n(CC(O)c3ccncc3)c3ccc(Cl)cc23)C1 (single isomer, unassigned) [41a]
heart rate (healthy dogs; 6 mg/kg oral gavage): slight decrease or neutral effect | systolic blood pressure (healthy dogs; acute studies, oral gavage): robust and long lasting reduction in systolic blood pressure
